Results on one molecule are retold here after paper PMC4139942 (Scientific Reports, 2014).

SMILES strings stand for the structures.

One assay concerns the target AD brain samples. To be noted: cited from earlier work.
The target in a further assay is amylin aggregates (Homo sapiens, UniProt P10997). Format: binding.
amylin aggregates, sequence (P10997 34-70): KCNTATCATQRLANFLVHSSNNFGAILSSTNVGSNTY

Consider `CNc1ccc(/C=C/c2ccc(OCCOCCOCCF)nc2)cc1` [AV-45, (E)-4-(2-(6-(2-(2-(2-fluoroethoxy)ethoxy)ethoxy)pyridin-3-yl)vinyl)-N-methylaniline], for which the figures for the Ki at AD brain samples and at amylin aggregates were 6.7 nM and 501 ± 40.8 nM, respectively.
